Article PMC5855688, “BC-Box Motif-Mediated Neuronal Differentiation of Somatic Stem Cells” (International Journal of Molecular Sciences, 2018)

Key:
[1] = biological target: T1, elongin BC (Homo sapiens, UniProt Q15369+Q15370); experiment: Isothermal titration calorimetry (ITC); type: binding
T1 construct: made in house; host or cells: E. coli BL21 (DE3), pCDFDuet-1
Method: In order to determine the crucial peptide sequence for elongin BC binding by isothemal titration caloritetry (ITC), recombinant proteins of elongin B and elongin C were prepared as follows. […] For purification, cell pellets were lysed by sonication in buffer A (20 mM Tris-HCl, pH 8.0, 0.5 M NaCl, 10 mM imidazole), and the soluble fraction was loaded onto Ni-NTA resin (Qiagen, Venlo, Netherlands) and eluted with buffer B (20 mM Tris-HCl (pH 8.0), 0.5 M NaCl, 250 mM imidazole). Eluted proteins were then loaded onto a Mono Q column followed by a Superdex 75 10/300 GL column (GE Healthcare, Chicago, IL, USA). For the ITC experiments, the elongin BC solution was exchanged with buffer C (20 mM HEPES-NaOH (pH 8.0), 150 mM NaCl) by using size-exclusion chromatography. Assays to assess the binding of peptides to elongin BC were performed by using a MicroCal iTC200 isothermal titration calorimeter (GE Healthcare, Chicago, IL, USA). […] The concentration of elongin BC was adjusted to a final one of 35 μM and injected into the sample cell (204 μL). One mM peptide was titrated into the protein solution as 40 consecutive 1.0-μL aliquots at 120-s intervals at 25 °C. The first injection volume was 0.4 μL, and the observed thermal peak was excluded from the data analyses. Duplicate experiments were performed independently. […] The KD values were calculated from duplicate thermograms.

[2] = system: skin-derived precursors (SKPs); experiment: Whole-cell patch-clamp electrophysiology; type: cell-based, rat (neonate Wistar); conditions: five days after peptide addition at 3 μM, holding potential −80 mV, steps of 20 mV from −100 to 100 mV, VHL(157–168) vs VHL(157–171) p < 0.01
Method: (§1) Rodent skin-derived precursor cells (SKPs), which can differentiate to neurons, were used. SKPs were previously isolated from the back dermis of neonate Wistar rats by the authors. These cells were cultured in growth medium composed of DMEM/F12 (1:1; Gibco, Grand Island, NY, USA) containing 2% B27 supplement (Gibco), 20 ng/mL epidermal growth factor (EGF; Upstate Biotechnology, Lake Placid, NY, USA), and 40 ng/mL bFGF (PeproTech EC Ltd., Rocky Hill, NJ, USA) in a humidified incubator at 37 °C with 5% CO2. The floating clusters of cultured cells were centrifuged and dissociated into a single-cell suspension by use of a Pasteur pipette with a flame-polished tip. These single cells were then re-suspended into at a concentration of 50,000 cells/mL for passage or experiments.
(§2) For neuronal differentiation, cells were dissociated into a single-cell suspension by use of a Pasteur pipette and re-suspended into a concentration of 50,000 cells/mL in DMEM/F12 without serum, neurotrophic factors or growth factors. Then, the cells were cultured on poly-L-lysine-coated dishes or cover glasses, and the synthesized peptides at concentrations from 1 to 5 μM were added to the culture medium and delivered into the cells. Three days or more later, the cells were used for morphological, immunocytochemical, immunohistochemical, electrophysiological and immunoprecipitation studies, as well as for Western blot analysis.
To record fast sodium and delayed rectifier potassium currents, we prepared extracellular and intracellular solutions as described previously. […] For recordings and data analysis we used CEZ-2300 (Nihon Kohden, Tokyo, Japan) and pCLAMP 6.0 software (Axon Instruments, Burlingame, CA, USA). Linear components of leak and capacitive currents were reduced by analogue circuitry and then canceled by the P/N method. Signals were sampled every 20 μs, and currents were filtered at 5 kHz. Data were additionally processed with Origin 5.0 (Microcal, Northhampton, MA, USA).

[3] = system: JAK2; experiment: Western blotting of JAK2 before and after peptide treatment; type: cell-based, rat; conditions: Western blot, Figure 5B, p < 0.01
[4] = system: rat brain; experiment: Immunohistochemistry (NeuN) of transplanted peptide-treated cells in rat brain; type: in vivo, rat (Wistar); conditions: 1 × 10^5 peptide-treated cells transplanted into rat brain, 6 weeks; mean ± SEM; vs VHL(157–171): p < 0.01 for VHL(157–168), p < 0.005 for TAT
Method: To evaluate neuronal differentiation of transplanted cells in rat brains, immunohistochemical study was performed as described previously. Before grafting, cells were preincubated with red fluorescence PKH26PCL (Sigma, St. Louis, MO, USA). […] Rats were anesthetized with isoflurane before surgery, and 1 × 10^5 cells were transplanted into rat brain. The rats were perfused with periodate-lysine-paraformaldehyde solution 6 weeks after the transplantation. Their brains were subsequently dissected and postfixed in the same medium for 2 h, cryopreserved in 30% sucrose for 12 h, and then embedded in Tissue Tek OCT compound (Sakura, Tokyo, Japan). Cryostat coronal sections of 14-μm thickness were prepared for immunohistochemistry. For immunostaining, sections were incubated with primary antibody, anti-NeuN antibody, and then incubated in secondary antibody, FITC-conjugated anti-rabbit IgG. Counterstaining was done with DAPI. In immohistochemistry, observations were made with a confocal immunofluorescence microscope (FV300, Olympus, Tokyo, Japan).
Wistar rats (Clea, Tokyo, Japan) were used in all experiments and housed in a temperature controlled room on a 12-h day/night cycle with free access to food and water. All animal experimental procedures were approved by the Institutional Animal Use Committee of Yokohama City University (ID 153, 1 April 2015) and were in accordance with National Institutes of Health guidelines for care and use of laboratory animals.

[5] = system: skin-derived precursors (SKPs); experiment: Neurite outgrowth / morphological evaluation of neuronal differentiation; type: cell-based, rat (neonate Wistar); conditions: peptides at 1 to 5 μM; for Neurite Outgrowth Activity: Figure 2A, rates of cells having neurites, VHL157–168 vs VHL(157–171) p < 0.005
Method: as §1, §2
Neurite outgrowth with length exceeding the diameter of the neuronal soma is often assessed as a morphological index of neuronal differentiation. After a single-cell suspension was made by pipetting, the cells were cultured in DMEN/F12 medium alone at 37 °C in a 5% CO2 incubator. Thereafter, neurite outgrowth was evaluated with the following 4 levels: +++, for above 50% of the cells showing neurite outgrowth; ++, for 20–50% with neurite outgrowth; +, for 5–19% having neurite outgrowth; and −, for below 5% of the cells with neurite outgrowth.

[6] = system: skin-derived precursors (SKPs); experiment: Immunocytochemistry with anti-Neurofilament-H (NFH) antibody; type: cell-based, rat (neonate Wistar); conditions: immunocytochemistry, peptides at 1 to 5 μM; mean ± SEM; vs VHL(157–171): p < 0.01 for VHL(157–168), p < 0.005 for TAT
Method: as §1, §2
Cultured cells were fixed with 4% paraformaldehyde in PBS (Phosphate buffered saline) for 10 min at room temperature. Cells were incubated for 1 h at room temperature with primary antibodies. Antibodies against anti-MAP2 antibody (Sigma-Aldrich, St. Louis, MO, USA), anti-Neurofilment-H (NFH) antibody (Sigma-Aldrich), anti-NeuN antibody (Merk Millipore, Billerica, MA, USA), anti-GFAP antibody (DAKO, Santa Clara, CA, USA), anti-tyrosine hydroxylase (TH) antibody (Merk Millipore, Billerica, MA, USA), anti-choline acetyl transferase (ChAT) antibody (Abbiotec, San Diego, CA, USA), anti-glutamic acid decaboxylase (GAD) antibody (Enzo Life Sciences, Flamingdale, NY, USA), and anti-rhodopsin antibody (Santa Cruz, San Diego, CA, USA) were used. […] Nuclear counterstaining was done with DAPI (Molecular Probes, Eugene, OR, USA) or TO-PRO-3 (Molecular Probes), and observations were made with a fluorescence microscope system (FV300, Olympus, Tokyo, Japan). We counted the number of immuno-positive cells with a given antibody in 4 to 6 random non-overlapping visual fields (50–200 cells per field) in each experiment. […] The degree of positivity was expressed as the rate of immuno-positive cells to the total number of nuclei stained with DAP1 or TO-PRO-3.

[7] = system: skin-derived precursors (SKPs); experiment: Western blot analysis of NFH protein; type: cell-based, rat (neonate Wistar); conditions: three days after treatment, Figure 3B, peptides at 1 to 5 μM, less than VHL(157–171): VHL(157–168) p < 0.01, TAT p < 0.001
Method: as §1, §2
Cultured cells were washed 3 times in cold PBS and then scraped into ice-cold PBS. After incubation on ice for 10 min, the cells were lysed with lysis buffer and centrifuged, after which the supernatants were collected. Each sample was separated by SDS-PAGE under reducing conditions and transferred electrophoretically to nitrocellulose filters. Non-specific binding of antibody was blocked by incubation with 5% donkey serum for 1 h. Western blots were probed with anti-MAP2 antibody, anti-NFH antibody, anti-ChAT antibody, anti-GAD antibody, anti-rhodopsin antibody, anti-TH antibody, and anti-elongin C antibody (Santa Cruz, San Diego, CA, USA) followed by horseradish peroxidase-conjugated secondary antibodies. Protein bands were detected by using a chemical luminescence detection system (ECL Plus Western Blotting Reagent Pack, Amersham, Hemel Hempstead, UK). Images were analyzed with LAS-1000 (Fujifilm, Tokyo, Japan), and the density of the bands was determined by using Image Gauge software (Fujifilm).

[8] = system: STAT3; experiment: Western blotting of STAT3 before and after peptide treatment; type: cell-based, rat; conditions: Western blot, Figure 5B, p < 0.01

T1 sequence (Q15369 17-112): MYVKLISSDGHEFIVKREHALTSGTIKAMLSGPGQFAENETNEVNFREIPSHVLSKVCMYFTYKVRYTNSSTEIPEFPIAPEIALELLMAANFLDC
T1 sequence (Q15370 whole entry partner): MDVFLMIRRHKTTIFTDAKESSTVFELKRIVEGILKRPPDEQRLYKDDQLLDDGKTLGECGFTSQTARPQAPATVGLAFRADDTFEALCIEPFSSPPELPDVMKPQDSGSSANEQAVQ

Sequence: TLKERCLQVVRS [VHL157–168, VHL peptide without TAT, for ITC, synthesized by CS Bio Co]
- ΔS ([1]; 25 °C, 20 mM HEPES-NaOH (pH 8.0), 150 mM NaCl, mean ± S.D. of two independent replicates): −8.54 ± 0.74 cal/mol/deg

Sequence: YARAAARQARA [TAT, modified TAT protein transduction domain peptide, reference compound]
- Voltage-gated outward K+ and inward Na+ currents [2]: no current was elicited
- JAK2 degradation [3]: Bands for JAK2 and STAT3 were found for pre-treated cells or TAT-treated cells more than post-treated cells
- Positive rates of NeuN [4]: 3.2 ± 0.8%
- Neurite Outgrowth Activity [5]: scarcely did
- Morphological change ([5]; phase-contrast microscopy, Figure 1E): no morphological change
- Percentage of NFH-positive cells [6]: 6.9 ± 1.5%
- NFH protein amount / band [7]: a faint band
- STAT3 degradation [8]: Bands for JAK2 and STAT3 were found for pre-treated cells or TAT-treated cells more than post-treated cells

Sequence: YARAAARQARAKERCLQVVRS [VHL(159–171), pVHL fragment conjugated with PTD]
- Elongin BC binding affinity ([1]; two residues deleted from the N-terminus, p < 0.0001): complete loss of elongin BC binding affinity
- Neurite Outgrowth Activity [5]: scarcely did

Sequence: YARAAARQARATLKERCLQVVRS [VHL(157–168), BC-box motif plus two amino acids, conjugated with PTD]
- Voltage-gated outward K+ and inward Na+ currents [2]: both significantly smaller outward potassium and inward Na^+ currents
- Positive rates of NeuN [4]: 9.2 ± 1.8%
- Neurite Outgrowth Activity [5]: significantly weaker neurite outgrowth activity than VHL(157–171)
- Percentage of NFH-positive cells [6]: 10.1 ± 2.2%
- NFH protein amount / band [7]: a less distinct band for NFH
